Assay results from patent publication US20070048325A1, “Combination therapies for inhibiting integrin-extracellular matrix interactions” (priority 2005, published 2007).
Where no end group is shown, it is not given here.

Columns and labels:
[1] = target: integrin αvβ3 on M21 human melanoma cells (human (on human melanoma M21 cells)) (UniProt P06756); test: cell-based or functional assay
[2] = tested on: denatured collagen type-IV; test: ^99Tc-labeled CLK-peptide binding, gamma counter; conditions: for inhibition of ^99Tc-CLK-peptide binding to denatured collagen type-IV: collagen coated at 10 μg/ml
Method: FIG. 28 Inhibition of Binding of ^99Tc-Labeled CLK-Peptide to Denatured Collagen Type-IV by mAb HUI77. Denatured collagen type-IV (10 μg/ml) was coated on microtiter wells and binding of ^99Tc-labeled CLK-peptide in the presence or absence of unlabeled CLK-peptide or mAb HUI77 was measured. […] These findings provide further evidence that the CLK-peptide binds to a similar, if not identical, epitope recognized by the mAb HUI77.
In addition, denatured collagen type-IV (10 μg/ml) was coated on microtiter wells and binding of ^99Tc-labeled CLK-Peptide in the presence or absence of unlabeled CLK-peptide or mAb HUI77 was measured using a gamma counter. […] These findings provide further evidence that the CLK-peptide binds to a similar if not identical epitope recognized by Mab HUI77.

[3] = tested on: denatured collagen; conditions: cited from earlier work
[4] = tested on: denatured collagen type-IV; test: Solid phase ELISA of HRP-labeled CLK-peptide binding; conditions: collagen coated at 10 μg/ml; ELISA 490 nm
Method: FIG. 27 Inhibition of Binding of Labeled CLK-Peptide to Denatured Collagen Type-IV by mAb HUI77. To examine the binding specificity of the synthetic CLK-peptide, the peptide was labeled and solid phase ELISAs were performed.
To examine the binding specificity of CLK-Peptide, the peptide was labeled and solid phase ELISAs were performed. Denatured collagen type-IV (10 μg/ml) was coated on microtiter wells and binding of either HRP-labeled CLK-Peptide or mAbs (mAbs HU177 or HUIV26) was measured by ELISA at a wavelength of 490 nm.

[5] = tested on: M21 cells; test: M21 cell adhesion to native collagen type-IV; format: cell-based, human; conditions: CLK-peptide 100 μg/ml; mAb HUIV26 100 μg/ml; data not shown
Method: FIG. 25 Effect of mAb HUIV26 in Combination with CLK-Peptide on Adhesion of M21 Cells to Denatured Collagen Type IV. Microtiter wells were coated with either native or denatured collagen type-IV. M21 cells were allowed to bind to the coated substrates in the presence of CLK-peptide, mAb HUIV26, or both.
The effects of CLK-peptide, mAb HUIV26, and the combination of both on tumor cell adhesion were examined in vitro. Non-tissue culture treated 48-well microtiter plates were coated overnight at 4° C. with either native or denatured collagen type-IV (5 μg/ml). The plates were then blocked with 1% BSA in PBS for 1 hour at 37° C. Human melanoma (M21) cells at 10^5 cells/well in adhesion buffer were allowed to attach to the coated wells in the presence of either CLK-peptide (100 μg/ml), or mAb HUIV26 (100 μg/ml, […]), or both together (CLK-peptide 25 μg/ml, mAb HUIV26 100 μg/ml). The cells were washed 2× with PBS, stained with crystal violet and destained with 10% acetic acid. Cell adhesion was quantified by measuring the O.D. of eluted dye at 600 nm. Data bars represent the mean O.D.±standard deviation from triplicate wells.

[6] = tested on: denatured collagen type-IV; conditions: substantially greater defined as at least 1.5-fold; cited from earlier work
[7] = tested on: denatured collagen type-IV; test: Competition ELISA of CLK-peptide and mAb HUIV26; format: binding
Method: FIG. 26 Binding of CLK-Peptide and Mab HUIV26 to Denatured Collagen Type IV. To examine the epitope bound by CLK and HUIV26, competition ELISAs were carried out. Microtiter wells were coated with denatured collagen type-IV (10 μg/ml), and mAb HUIV26 was allowed to bind the denatured collagen in the presence or absence of CLK-peptide.
To characterize the epitope bound by CLK and HUIV26, competition ELISAs were carried out. Microtiter wells were coated with denatured collagen type-IV (1 μg/ml) overnight at 4° C., and the plates were blocked with 1% BSA for 1 hour at 37° C. Monoclonal Ab HUIV26 was added at 1 μg/ml and allowed to bind the denatured collagen in the presence or absence of 100 μg/ml of CLK-peptide for 2 hours at 37° C. Goat-anti-mouse antibody was added at 1:3000 and incubation was allowed for 1 hour at 37° C. A color solution, then a stopping solution of 4N sulfuric acid, were added and binding was quantified by measuring the O.D. 490 nm. […] Similar results were obtained over a wide range of peptide and antibody concentrations (1 to 100 μg/ml; data not shown).

Sequence of UniProt P06756 (P06756 31-1048, chain 1 of 2): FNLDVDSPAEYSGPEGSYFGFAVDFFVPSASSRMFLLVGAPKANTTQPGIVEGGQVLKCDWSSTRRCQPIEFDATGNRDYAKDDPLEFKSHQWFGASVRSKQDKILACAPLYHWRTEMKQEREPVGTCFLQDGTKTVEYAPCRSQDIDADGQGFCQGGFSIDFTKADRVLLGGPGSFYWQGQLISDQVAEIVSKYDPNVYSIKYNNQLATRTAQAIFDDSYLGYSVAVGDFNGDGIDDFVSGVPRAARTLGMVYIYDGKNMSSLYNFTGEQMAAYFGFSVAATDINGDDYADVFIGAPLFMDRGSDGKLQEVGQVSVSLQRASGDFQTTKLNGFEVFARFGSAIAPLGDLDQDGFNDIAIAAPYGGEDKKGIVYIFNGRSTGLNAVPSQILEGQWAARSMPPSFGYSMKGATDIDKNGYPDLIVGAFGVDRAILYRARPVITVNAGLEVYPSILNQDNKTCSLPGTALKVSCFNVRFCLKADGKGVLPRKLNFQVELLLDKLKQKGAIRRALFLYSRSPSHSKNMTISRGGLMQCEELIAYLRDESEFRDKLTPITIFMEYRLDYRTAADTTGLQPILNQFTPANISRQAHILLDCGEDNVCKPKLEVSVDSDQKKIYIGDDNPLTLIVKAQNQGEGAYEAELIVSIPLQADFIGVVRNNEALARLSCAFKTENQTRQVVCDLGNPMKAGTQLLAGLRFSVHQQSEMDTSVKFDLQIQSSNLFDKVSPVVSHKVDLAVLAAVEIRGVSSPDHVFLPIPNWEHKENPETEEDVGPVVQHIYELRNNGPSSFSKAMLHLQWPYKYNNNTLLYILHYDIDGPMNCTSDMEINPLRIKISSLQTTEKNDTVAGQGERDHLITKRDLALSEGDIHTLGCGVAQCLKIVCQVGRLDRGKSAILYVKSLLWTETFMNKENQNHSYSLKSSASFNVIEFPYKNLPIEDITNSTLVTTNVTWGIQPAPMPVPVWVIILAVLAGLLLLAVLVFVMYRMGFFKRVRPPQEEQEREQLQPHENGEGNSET
Sequence of UniProt P06756 (P05106 27-788, chain 2 of 2, further chain): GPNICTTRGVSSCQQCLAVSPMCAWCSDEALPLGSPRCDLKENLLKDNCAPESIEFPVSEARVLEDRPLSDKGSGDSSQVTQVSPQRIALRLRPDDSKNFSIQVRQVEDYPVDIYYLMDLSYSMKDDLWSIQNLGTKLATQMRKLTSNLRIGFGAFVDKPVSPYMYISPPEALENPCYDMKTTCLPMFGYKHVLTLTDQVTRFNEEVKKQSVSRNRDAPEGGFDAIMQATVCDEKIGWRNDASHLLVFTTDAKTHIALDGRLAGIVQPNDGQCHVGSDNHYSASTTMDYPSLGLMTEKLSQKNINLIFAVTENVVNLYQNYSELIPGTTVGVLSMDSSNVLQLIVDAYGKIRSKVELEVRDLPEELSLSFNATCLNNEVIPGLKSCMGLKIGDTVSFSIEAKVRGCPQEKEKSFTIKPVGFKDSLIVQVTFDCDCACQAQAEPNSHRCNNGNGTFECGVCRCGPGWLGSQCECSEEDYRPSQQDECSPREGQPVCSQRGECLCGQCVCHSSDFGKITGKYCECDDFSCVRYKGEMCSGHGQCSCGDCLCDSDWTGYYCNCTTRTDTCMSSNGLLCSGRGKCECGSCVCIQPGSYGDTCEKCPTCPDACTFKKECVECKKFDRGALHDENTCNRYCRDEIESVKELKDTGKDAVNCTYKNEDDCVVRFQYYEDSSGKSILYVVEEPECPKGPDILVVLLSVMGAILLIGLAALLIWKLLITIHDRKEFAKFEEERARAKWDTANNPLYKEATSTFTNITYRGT

In the case of Mab LM609 (antibody), the relative level of IGFBP-4 RNA (real time PCR) in M21 cells on denatured collagen type-IV [1] is reported as 8 fold, the relative level of TSP-1 (real time PCR) in M21 cells on plates coated with anti-integrin Mabs [1] is reported as greater than 50% and the relative level of TSP-1 RNA (real time PCR) in M21 cells on denatured collagen type-IV [1] is reported as 8 fold.

In the case of “mAb HUI77: mouse monoclonal antibody to denatured collagen; hybridoma PTA-6551; SEQ ID NO: 1 and 8”, the “inhibition of ^99Tc-CLK-peptide binding to denatured collagen type-IV” value [2] is given as “inhibited”, the “affinity to the native form of the collagen compared to denatured collagen” value [3] is given as “substantially reduced affinity” and the “inhibition of HRP-labeled CLK-peptide binding to denatured collagen type-IV” value [4] is given as “specifically inhibited”.

For “^99Tc-CLK-peptide: CLK-peptide labeled with 99Tc (CLKQNGGNFSLG; also: labeled with 99Tc)”, the “binding of ^99Tc-CLK-peptide to denatured collagen type-IV” value ([2]; 10 μg/ml, 50 μl/well) was “specifically binds”.

In the case of “NH2-C-L-K-Q-N-G-G-N—F—S-L-G-COOH (H-CLKQNGGNFSLG-OH) [CLK-peptide]”, the “effect on M21 cell adhesion to native collagen type-IV” value [5] is given as “neither had any effect”, the “inhibition of ^99Tc-CLK-peptide binding to denatured collagen type-IV” value [2] is given as “dose dependent inhibition” and the “binding affinity to denatured collagen type-IV compared to native collagen type-IV” value [6] is given as “substantially greater”. The “blocking of mAb HUIV26 binding to denatured collagen type-IV” value ([7]; HUIV26 1 μg/ml, CLK-peptide 100 μg/ml) was “did not block”.

For “NH2-S-L-K-Q-N-G-G-N—F—S-L-C—COOH (H-SLKQNGGNFSLC-OH) [SLK-peptide]”, the “binding affinity to denatured collagen type-IV compared to native collagen type-IV” value [6] is given as “substantially greater”.

B1: mAb HUIV26: monoclonal antibody to denatured collagen; Hybridoma HUIV26 (PTA-6563); SEQ ID NO: 15 and 22 (antibody, listed as Mus musculus, V domains shown)
VH: EVKLLESGGGLVQPGGSLKLSCAASGFDFSRYWMSWVRQAPGKGLEWIGEINPDSSTINYTPSLKDKFIISRDNAKNTLYLQMSKVRSEDTALYYCARPVDGYYDAMDYWGQGTSVTVSS
VL: DIVMTQSPSLLSVSAGEKVTMSCKSSQSLLNSGNQKNYLAWYQQKPGQPPKLLIYGASTRESGVPDRFTGSGSGTDFTLIISSVQAEDLAVYYCQNDHSVPYTFGGGTKLEI
With B1 the “effect on M21 cell adhesion to native collagen type-IV” value [5] was “neither had any effect”, the “binding to denatured collagen type-IV” value ([7]; ELISA, HUIV26 1 μg/ml) was “readily bound” and the “blocking of CLK-peptide binding to denatured collagen type-IV” value ([7]; FIG. 26B) was “did not block”. For the same molecule, the “affinity to the native form of the collagen compared to denatured collagen” value [3] was “substantially reduced affinity” and the “inhibition of HRP-labeled CLK-peptide binding to denatured collagen type-IV” value [4] was “not”.
